# Paper PMC6588697, “Lugdunin amplifies innate immune responses in the skin in synergy with host- and microbiota-derived factors” (Nature Communications, 2019)
# Several values for one entry are separate records, joined by “and”; a condition that tells them apart may be missing. Identical values can stand only once.
# Legend:
# PHKs = experiment: AMP gene expression in PHKs (qRT-PCR, normalized to actin); format: cell-based, human; conditions: 20 h, 2 µM lugdunin and/or S. epidermidis CM, medium = 1, two technical replicates, Fig 1c
# Description: Fig. 1 Lugdunin sensitizes epithelial cells for innate immune defense. a Primary human keratinocytes (PHKs) were pretreated with S. epidermidis conditioned medium (CM), indicated lugdunin concentrations, or the combination of both for 20 h. Subsequently, cells were infected with S. aureus for 1.5 h followed by cell lysis and determination of colony-forming units (CFUs). Shown is one representative experiment of three independent experiments with six technical replicates ± s.e.m. n.s., not significant. b Dorsal skin of mice was pretreated with S. epidermidis CM, 1.5 µg lugdunin alone or in combination with S. epidermidis CM for 24 h. Subsequently, S. aureus CFUs were determined. Horizontal lines represent the mean of each group ± s.e.m. c PHKs were treated with 2 μM lugdunin or with S. epidermidis CM alone or in combination for 20 h and subsequently expression of indicated antimicrobial peptides (AMPs) (respective protein names in brackets) was analyzed and normalized to actin. Shown is one representative experiment of three independent experiments with two technical replicates ± s.e.m. d PHKs were treated with 2 µM lugdunin or 100 ng/mL Pam2Cys for 5 h and subsequently the concentration of indicated cytokines in the supernatant was analyzed by LEGENDplex^TM (BioLegend). Shown is one representative experiment of three independent experiments with two technical replicates ± s.e.m. e PHKs were treated with increasing concentrations of lugdunin or 100 ng/mL Pam2Cys or Pam3Cys for 5 h and subsequently expression of chemokine (C-X-C motif) ligand 8 (CXCL8) was analyzed and normalized to actin. Shown is one representative experiment of three independent experiments, each with two technical replicates ± s.e.m. f, g Indicated cells were treated with 2 µM lugdunin or 100 ng/mL Pam2Cys as a positive control for 5 h and subsequently the concentration of CXCL8 (f) and interleukin-1α (IL-1α) (g) in the supernatant was analyzed by LEGENDplex^TM (BioLegend) and enzyme-linked immunosorbent assay (ELISA) (R&D Systems). Shown is one representative experiment of three independent experiments with two technical replicates ± s.e.m. Significant differences to control treatments were analyzed by ordinary one-way analysis of variance (ANOVA) followed by Dunnett’s multiple comparisons test (*P < 0.05; **P < 0.01; ***P < 0.001; ****P < 0.0001). n.d. = not detected. Source data are provided as a Source Data file
# After 5 h or 20 h of peptide treatment, PHKs were washed once with PBS, followed by the addition of RNA lysis buffer directly into the well. Total RNA was extracted using the Nucleospin RNA Kit (Macherey-Nagel) according to the manufacturer’s protocol. Complementary DNA was synthesized using the Reverse-Transkriptase Kit (Thermo Scientific) with 2 µg of RNA, 4 µL of 5× RT buffer, 0.5 µL Maxima reverse transcriptase ([…]), 1 µL of random hexamer primer (100 µM), dNTP (10 mM), and RNAse-free water to a total volume of 20 µL. After pre-incubation of RNA with water for 10 min at 70 °C, master mix was added and incubated for 10 min at 25 °C, followed by 45 min at 50 °C and a final heat inactivation step for 5 min at 85 °C.
# Quantitative reverse transcription-polymerase chain reaction (qRT-PCR) was performed in 10 µL reaction volume with SYBR^TM Green PCR Master Mix (Thermo Fisher) according to the manufacturer’s instructions using a LightCycler 96 (Roche Life Science). […]
# 11 subsequently expression of CAMP (LL-37) was analyzed and normalized to actin. […]
# HEK293-TLR2 cells = experiment: CXCL8 expression in HEK-TLR2 cells (qRT-PCR); format: cell-based, human; conditions: 5 h, two technical replicates, Fig 2b
# Description: Fig. 2 Induction of chemokine (C-X-C motif) ligand 8/macrophage inflammatory protein-2 (CXCL8/MIP-2) by lugdunin is TLR2/MyD88-dependent. a HEK-control or HEK-TLR2 cells were treated with 2 μM lugdunin for 5 h and subsequently the CXCL8 concentration in the supernatant was analyzed by LEGENDplex^TM (BioLegend). Shown is one representative experiment of three independent experiments with two technical replicates ± s.e.m. b HEK-control or HEK-TLR2 cells were treated with increasing concentrations of lugdunin for 5 h and subsequently expression of CXCL8 was analyzed and normalized to actin. Shown is one representative experiment of three independent experiments with two technical replicates ± s.e.m. c Schematic overview of the mouse experiments: 6–8-week-old female C5BL/6 WT, MyD88-knockout (ko), or 5xTLR-ko mice were epicutaneously treated with 1.5 µg lugdunin or phosphate-buffered saline (PBS) as a control. After 24 h, mice were euthanized, 4 mm skin punches were taken, and further cultured in vitro for 10 h followed by cytokine analysis of the culture supernatant by LEGENDplex^TM (BioLegend). d, e Shown are the mean concentrations of IL-1α (d) or MIP-2 (e) in the skin culture supernatant of two skin punches from four mice each ± s.e.m. Significant differences to control treatments were analyzed by an unpaired two-tailed t test (*P < 0.05; **P < 0.01; ***P < 0.001). f Representative MIP-2-stained paraffin-embedded mouse skin sections. Scale bar, 100 µM. Source data are provided as a Source Data file
# Quantitative reverse transcription-polymerase chain reaction (qRT-PCR) was performed in 10 µL reaction volume with SYBR^TM Green PCR Master Mix (Thermo Fisher) according to the manufacturer’s instructions using a LightCycler 96 (Roche Life Science). The initial denaturation step was at 95 °C for 5 min, followed by 40 cycles with 10 s each for the denaturation step at 95 °C, the annealing at individual temperature, and the elongation at 72 °C. Primer sequences and respective annealing temperatures are listed in Supplementary Table 1. […]
substance,measurement,setting,value
Lugdunin,CAMP (LL-37) expression normalized to actin,PHKs,189.36 and 213.04
same,DEFB1 (HBD-1) expression normalized to actin,PHKs,1.91
same,DEFB4A (HBD-2) expression normalized to actin,PHKs,0.69 and 0.77
same,DEFB103A (HBD-3) expression normalized to actin,PHKs,1.53 and 1.71
same,RNASE7 (RNase7) expression normalized to actin,PHKs,2.34 and 2.18
same,CXCL8 expression normalized to actin,"HEK293-TLR2 cells; HEK-TLR2, lugdunin 0.5 µM, medium = 1",2.676 and 2.042
same,CXCL8 expression normalized to actin,"HEK293-TLR2 cells; HEK-TLR2, lugdunin 1 µM",1.404 and 1.257
same,CXCL8 expression normalized to actin,"HEK293-TLR2 cells; HEK-TLR2, lugdunin 2 µM",3.918 and 4.112
same,CXCL8 expression normalized to actin,"HEK293-TLR2 cells; HEK-TLR2, lugdunin 3 µM",4.408 and 3.864
same,CXCL8 expression normalized to actin,"HEK293-TLR2 cells; HEK-TLR2, lugdunin 5 µM",6.364 and 6.916
same,CXCL8 expression normalized to actin,"HEK293-TLR2 cells; HEK-TLR2, lugdunin 10 µM",9.415 and 10.232
